In PMC12136037, “Type II kinase inhibitors that target Parkinson’s disease–associated LRRK2” (Science Advances, 2025):
pEC50: −log10 of the molar value. Values joined by “and” are separate entries in the source; they are usually repeats but may differ in a detail not shown here. Identical values can stand only once. Like-named read-outs stand apart in the source and are kept apart here.

Columns and labels:
Assay in all cases: nanoBRET off-target validation
Type in all cases: cell-based
STK10 = molecular target: T1, STK10 (Homo sapiens, UniProt O94804)
T1 construct: host or cells: HEK293T (ATCC CRL-3216)
Procedure: (§1) The assay was performed as described previously ([61]). In brief, full-length kinases as listed in table S6 were obtained as plasmids cloned in frame with terminal NanoLuc-fusion (gift from Promega; table S6). […] Serially diluted inhibitor and corresponding tracer as listed in table S6 at the Tracer KD concentration taken from TracerDB (tracerdb.org) ([62]) were pipetted into white 384-well plates (Greiner, 781207) using an ECHO acoustic dispenser (Labcyte). The corresponding protein-transfected cells were added and reseeded at a density of 2 × 10^5 cells/ml after trypsinization and resuspending in Opti-MEM without phenol red (Life Technologies). The system was allowed to equilibrate for 3 hours at 37°C/5% CO2 before bioluminescence resonance energy transfer (BRET) measurements. To measure BRET, NanoBRET NanoGlo Substrate + extracellular NanoLuc Inhibitor (Promega, N2540) was added as per the manufacturer’s protocol, and filtered luminescence was measured on a PHERAstar plate reader (BMG Labtech) equipped with a luminescence filter pair [450-nm BP filter (donor) and 610-nm LP filter (acceptor)]. […] (For step-by-step protocol, see www.eubopen.org/sites/www.eubopen.org/files/attachments/2021/NanoBRET-IC50_v1_0.pdf.)

JNK2 = molecular target: T2, JNK2 (Homo sapiens, UniProt P45984)
T2 construct: host or cells: HEK293T (ATCC CRL-3216)
Procedure: as §1

CLK1 = molecular target: T3, CLK1 (Homo sapiens, UniProt P49759)
T3 construct: host or cells: HEK293T (ATCC CRL-3216)
Procedure: as §1

[1] = in cellulo nanoBRET, 293T cells

T3 sequence (P49759 whole entry): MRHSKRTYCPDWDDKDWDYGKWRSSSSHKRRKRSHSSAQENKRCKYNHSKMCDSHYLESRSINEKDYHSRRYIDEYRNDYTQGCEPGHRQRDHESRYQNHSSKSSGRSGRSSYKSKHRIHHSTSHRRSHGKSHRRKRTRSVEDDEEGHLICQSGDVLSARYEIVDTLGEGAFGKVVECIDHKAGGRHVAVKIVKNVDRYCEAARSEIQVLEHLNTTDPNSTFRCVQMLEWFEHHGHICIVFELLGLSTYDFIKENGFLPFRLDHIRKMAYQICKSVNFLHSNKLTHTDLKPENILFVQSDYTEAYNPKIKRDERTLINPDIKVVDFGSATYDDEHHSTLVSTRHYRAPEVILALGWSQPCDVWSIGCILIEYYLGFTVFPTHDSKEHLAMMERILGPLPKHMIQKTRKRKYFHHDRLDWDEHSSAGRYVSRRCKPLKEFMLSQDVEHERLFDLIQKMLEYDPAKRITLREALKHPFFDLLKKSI
T1 sequence (O94804 whole entry): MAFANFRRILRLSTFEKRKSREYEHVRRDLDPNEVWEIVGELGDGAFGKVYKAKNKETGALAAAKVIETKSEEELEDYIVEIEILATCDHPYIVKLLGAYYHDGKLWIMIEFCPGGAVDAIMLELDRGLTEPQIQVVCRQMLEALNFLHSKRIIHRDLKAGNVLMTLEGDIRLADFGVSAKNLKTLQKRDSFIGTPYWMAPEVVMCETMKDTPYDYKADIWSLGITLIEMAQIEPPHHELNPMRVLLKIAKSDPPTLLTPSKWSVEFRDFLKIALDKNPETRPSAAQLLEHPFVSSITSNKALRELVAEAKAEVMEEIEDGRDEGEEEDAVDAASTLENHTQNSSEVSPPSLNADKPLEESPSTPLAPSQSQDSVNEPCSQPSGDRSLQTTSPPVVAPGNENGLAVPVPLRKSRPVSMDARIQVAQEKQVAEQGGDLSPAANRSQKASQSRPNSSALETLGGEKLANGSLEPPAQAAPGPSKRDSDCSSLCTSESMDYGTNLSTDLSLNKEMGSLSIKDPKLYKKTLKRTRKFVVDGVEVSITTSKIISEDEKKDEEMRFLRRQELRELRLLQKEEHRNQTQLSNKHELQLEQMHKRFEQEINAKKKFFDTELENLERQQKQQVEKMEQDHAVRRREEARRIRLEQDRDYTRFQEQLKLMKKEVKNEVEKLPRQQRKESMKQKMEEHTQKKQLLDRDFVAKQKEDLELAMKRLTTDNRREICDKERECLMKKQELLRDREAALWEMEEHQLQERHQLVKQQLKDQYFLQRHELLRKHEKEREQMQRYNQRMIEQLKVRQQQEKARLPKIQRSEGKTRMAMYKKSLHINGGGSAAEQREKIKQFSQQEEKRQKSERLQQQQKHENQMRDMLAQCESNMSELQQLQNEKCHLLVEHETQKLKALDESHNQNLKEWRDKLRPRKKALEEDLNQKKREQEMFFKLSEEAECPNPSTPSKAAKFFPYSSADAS
T2 sequence (P45984 whole entry): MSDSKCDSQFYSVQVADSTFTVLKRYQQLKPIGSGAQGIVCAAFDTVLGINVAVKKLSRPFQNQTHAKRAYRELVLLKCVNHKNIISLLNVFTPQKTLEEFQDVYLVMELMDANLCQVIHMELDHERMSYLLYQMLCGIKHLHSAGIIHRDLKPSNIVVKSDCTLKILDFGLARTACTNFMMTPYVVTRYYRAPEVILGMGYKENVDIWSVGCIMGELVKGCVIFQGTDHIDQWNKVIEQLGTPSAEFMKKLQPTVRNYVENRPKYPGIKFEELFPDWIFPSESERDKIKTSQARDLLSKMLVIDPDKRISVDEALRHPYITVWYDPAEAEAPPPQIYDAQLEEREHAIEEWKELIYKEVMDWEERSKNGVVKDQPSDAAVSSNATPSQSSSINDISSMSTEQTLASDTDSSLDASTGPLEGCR

Compound: CCSc1nc(NC)c2c(-c3cccc(NC(=O)Nc4cc(C(C)(C)C)nn4-c4ccc(C)cc4)c3)c[nH]c2n1 [Compound 32]
- nanoBRET response normalized to 0% (no tracer) and 100% (no inhibitor) control (STK10; STK10, inhibitor 25000 nM, two replicates, listed as RN341, 25 µM): 8.0832%
- remaining activity at 25 µM (STK10; STK10, inhibitor 25000 nM, two replicates, read-out: nanoBRET response normalized to 0% (no tracer) and 100% (no inhibitor) control): 6.79%
- pEC50 (STK10; [1]): > 5.30 and 5.82
- nanoBRET response normalized to 0% (no tracer) and 100% (no inhibitor) control (JNK2; JNK2, inhibitor 8 nM, two replicates, listed as RN341, 0.008 µM): 97.2218%
- remaining activity at 0.008 µM (JNK2; JNK2, inhibitor 8 nM, two replicates, read-out: nanoBRET response normalized to 0% (no tracer) and 100% (no inhibitor) control): 103%
- nanoBRET response normalized to 0% (no tracer) and 100% (no inhibitor) control (JNK2; JNK2, inhibitor 16 nM, two replicates, listed as RN341, 0.016 µM): 96.1223%
- remaining activity at 0.016 µM (JNK2; JNK2, inhibitor 16 nM, two replicates, read-out: nanoBRET response normalized to 0% (no tracer) and 100% (no inhibitor) control): 95.8%
- nanoBRET response normalized to 0% (no tracer) and 100% (no inhibitor) control (JNK2; JNK2, inhibitor 50 nM, two replicates, listed as RN341, 0.05 µM): 96.724%
- remaining activity at 0.05 µM (JNK2; JNK2, inhibitor 50 nM, two replicates, read-out: nanoBRET response normalized to 0% (no tracer) and 100% (no inhibitor) control): 91.7%
- nanoBRET response normalized to 0% (no tracer) and 100% (no inhibitor) control (JNK2; JNK2, inhibitor 250 nM, two replicates, listed as RN341, […]): 80.9747%
- remaining activity at […] (JNK2; JNK2, inhibitor 250 nM, two replicates, read-out: nanoBRET response normalized to 0% (no tracer) and 100% (no inhibitor) control): 78.7%
- nanoBRET response normalized to 0% (no tracer) and 100% (no inhibitor) control (JNK2; JNK2, inhibitor 500 nM, two replicates, listed as RN341, 0.5 µM): 61.7006%
- remaining activity at 0.5 µM (JNK2; JNK2, inhibitor 500 nM, two replicates, read-out: nanoBRET response normalized to 0% (no tracer) and 100% (no inhibitor) control): 65.3%
- nanoBRET response normalized to 0% (no tracer) and 100% (no inhibitor) control (JNK2; JNK2, inhibitor 2500 nM, two replicates, listed as RN341, […]): 73.4181%
- remaining activity at […] (JNK2; JNK2, inhibitor 2500 nM, two replicates, read-out: nanoBRET response normalized to 0% (no tracer) and 100% (no inhibitor) control): 71.9%
- nanoBRET response normalized to 0% (no tracer) and 100% (no inhibitor) control (JNK2; JNK2, inhibitor 5000 nM, two replicates, listed as RN341, 5 µM): 50.6395%
- remaining activity at 5 µM (JNK2; JNK2, inhibitor 5000 nM, two replicates, read-out: nanoBRET response normalized to 0% (no tracer) and 100% (no inhibitor) control): 57.2%
- nanoBRET response normalized to 0% (no tracer) and 100% (no inhibitor) control (JNK2; JNK2, inhibitor 25000 nM, two replicates, listed as RN341, 25 µM): 6.955%
- remaining activity at 25 µM (JNK2; JNK2, inhibitor 25000 nM, two replicates, read-out: nanoBRET response normalized to 0% (no tracer) and 100% (no inhibitor) control): 9.64%
- pEC50 (JNK2; [1]): > 5.30 and 5.57
- pEC50 (CLK1): 5.22
- nanoBRET response normalized to 0% (no tracer) and 100% (no inhibitor) control (CLK1; CLK1, inhibitor 8 nM, two replicates, listed as RN341, 0.008 µM): 96.3388%
- normalized NanoBRET tracer signal at 0.008 µM (CLK1; CLK1, inhibitor 8 nM, two replicates, read-out: nanoBRET response normalized to 0% (no tracer) and 100% (no inhibitor) control): 99.4%
- nanoBRET response normalized to 0% (no tracer) and 100% (no inhibitor) control (CLK1; CLK1, inhibitor 16 nM, two replicates, listed as RN341, 0.016 µM): 93.1575%
- normalized NanoBRET tracer signal at 0.016 µM (CLK1; CLK1, inhibitor 16 nM, two replicates, read-out: nanoBRET response normalized to 0% (no tracer) and 100% (no inhibitor) control): 93.9%
- nanoBRET response normalized to 0% (no tracer) and 100% (no inhibitor) control (CLK1; CLK1, inhibitor 50 nM, two replicates, listed as RN341, 0.05 µM): 98.6143%
- normalized NanoBRET tracer signal at 0.05 µM (CLK1; CLK1, inhibitor 50 nM, two replicates, read-out: nanoBRET response normalized to 0% (no tracer) and 100% (no inhibitor) control): 97.1%
- nanoBRET response normalized to 0% (no tracer) and 100% (no inhibitor) control (CLK1; CLK1, inhibitor 250 nM, two replicates, listed as RN341, […]): 91.8848%
- normalized NanoBRET tracer signal at […] (CLK1; CLK1, inhibitor 250 nM, two replicates, read-out: nanoBRET response normalized to 0% (no tracer) and 100% (no inhibitor) control): 93.8%
- nanoBRET response normalized to 0% (no tracer) and 100% (no inhibitor) control (CLK1; CLK1, inhibitor 500 nM, two replicates, listed as RN341, 0.5 µM): 89.5722%
- normalized NanoBRET tracer signal at 0.5 µM (CLK1; CLK1, inhibitor 500 nM, two replicates, read-out: nanoBRET response normalized to 0% (no tracer) and 100% (no inhibitor) control): 87.8%
- nanoBRET response normalized to 0% (no tracer) and 100% (no inhibitor) control (CLK1; CLK1, inhibitor 2500 nM, two replicates, listed as RN341, […]): 66.5911%
- normalized NanoBRET tracer signal at […] (CLK1; CLK1, inhibitor 2500 nM, two replicates, read-out: nanoBRET response normalized to 0% (no tracer) and 100% (no inhibitor) control): 70.4%
- nanoBRET response normalized to 0% (no tracer) and 100% (no inhibitor) control (CLK1; CLK1, inhibitor 5000 nM, two replicates, listed as RN341, 5 µM): 68.3349%
- normalized NanoBRET tracer signal at 5 µM (CLK1; CLK1, inhibitor 5000 nM, two replicates, read-out: nanoBRET response normalized to 0% (no tracer) and 100% (no inhibitor) control): 62%
- nanoBRET response normalized to 0% (no tracer) and 100% (no inhibitor) control (CLK1; CLK1, inhibitor 25000 nM, two replicates, listed as RN341, 25 µM): 18.5705%
- normalized NanoBRET tracer signal at 25 µM (CLK1; CLK1, inhibitor 25000 nM, two replicates, read-out: nanoBRET response normalized to 0% (no tracer) and 100% (no inhibitor) control): 17.2%
